Legend:
[1] = popPK model simulation of ensifentrine PK by renal function (virtual population of COPD subjects); set-up: species or system human; conditions: nebulization of 3 mg, simulated
Method: Plasma concentrations of ensifentrine for the assessment of pharmacokinetic (PK) parameters were measured using validated bioanalytical methods for ensifentrine in human plasma with LLOQ of 5 pg/mL. Samples were taken on the following schedule: • Week 6: 1.0 h (±0.5 h) and 2.5 h (±0.5 h) (even sites) or 1.5 h and 4 h (±1 h) (odd sites); • Week 12: pre-dose (−0.5 h), 4 to 6 h, and 8 to 12 h (even sites) or 0.5 h (±0.25 h), 3 h (±0.5 h), and 6 to 8 h (odd sites); • Week 24: pre-dose (−0.5 h) and 1.5 h (even sites) or pre-dose (−0.5 h) and 1 h (±0.5 h) (odd sites)
Based on the samples taken during the trial, PK data was modelled for COPD patients with varying levels of renal function:
A two-compartment model with first-order input and first-order elimination from the central compartment was fit to the plasma concentration-time data of ensifentrine using NONMEM® version 7.4.4. Different absorption functions and compartmental structures were explored. […]
The final model was evaluated using goodness of fit plots, bootstrap analysis, and visual predictive checks (VPCs). […]
Subjects with normal renal function to mild renal impairment are defined as those individuals with an absolute estimated glomerular filtration rate (aEGFR) of greater than or equal to 60 mL/min. […] Individual subject concentrations were simulated using NONMEM version 7.4.3, and PK parameters were calculated using R version 3.4.0. […]

[2] = Dose normalized steady-state AUCtau in non-COPD subjects with and without hepatic impairment; format: in vivo, human; conditions: for AUC: human, plasma, inhaled, 3 mg, dose normalized to 3 mg, FIG. 3
Method: The dose normalized steady-state AUCtau for a 3 mg dose in non-COPD subjects with and without hepatic impairment is shown in FIG. 3. As described in FIG. 3 the AUCtau,ss of healthy subjects was from about 5000 pg/mL*h to about 9000 pg/mL*h. The AUCtau,ss of subjects with moderate hepatic impairment was about 4000 pg/mL*h to about 11000 pg/mL*h. The AUCtau,ss of subjects with severe hepatic impairment was about 5500 pg/mL*h to about 6500 pg/mL*h. […] The highest dose normalized AUCtau,ss observed in this subset was for a subject with moderate hepatic impairment, but this was not the highest exposure in the overall dataset as it was exceeded by two other subjects with COPD.

[3] = system: patients with moderate to severe COPD; test: Clinical study of nebulized ensifentrine versus placebo in COPD: average FEV1 AUC0-12h at week 12; format: in vivo, human
Method: A clinical study was conducted to determine the efficacy of ensifentrine in treating COPD compared with placebo. Ensifentrine was administered by nebulizer at a dose of 3 mg twice daily (BID) for 24 weeks. The study was a multicenter, randomized, double-blind, parallel group, placebo-controlled trial with around 800 patients and 5:3 randomization.
The study population included patients aged 40-80 years with moderate to severe COPD (FEV1 30%-70% p.n., FEV1/forced vital capacity (FVC) ratio<0.7, with mMRC≥2). The randomization stratified (a) the use of stable background maintenance LAMA or LABA therapy use (approx. 50% yes or no) and (b) cigarette smoking (current or former). Inhaled corticosteroid (ICS) maintenance therapy was permitted in up to 20% of patients under certain provisions.
The primary endpoint of the study was change from baseline in average FEV1 area under the curve (AUC0-12h) […] at week 12; morning trough FEV1 at week 12; and other endpoints including moderate/severe COPD exacerbations frequency over 24 weeks.
Baseline FEV1 is the mean of the two measurements taken before study medication on the day of first dosing, i.e., ≤40 minutes and just prior to dosing, both pre-dose on day 1. Average FEV1 AUC0-12h is defined as area under the curve over 12 h of the FEV1, divided by 12 h.
The investigational product and placebo were provided in 2.5 mL unit dose format in an ampule and administered via a nebulizer. The formulation of the investigational product (ensifentrine suspension formulation comprising crystalline polymorph Form I of ensifentrine) and placebo are shown in Table 2.

AUC ratio aEGFR < 60 mL/min: ≥60 mL/min [1]: 1.30 | Cmax ratio aEGFR < 60 mL/min: ≥60 mL/min [1]: 1.16 | AUC ([2]; healthy subjects): 5 to 9 ng·h/mL | AUC ([2]; subjects with moderate hepatic impairment (n=10)): 4 to 11 ng·h/mL | AUC ([2]; subjects with severe hepatic impairment (n=2)): 5.5 to 6.5 ng·h/mL | Exposure (AUC) in hepatic impairment versus healthy subjects ([2]; moderate (n=10) or severe (n=2) hepatic impairment): comparable to healthy subjects
Structure (SMILES): COc1cc2c(cc1OC)-c1c/c(=N\c3c(C)cc(C)cc3C)n(CCNC(N)=O)c(=O)n1CC2 [Ensifentrine, N-(2-{(2E)-9,10-dimethoxy-4-oxo-2-[(2,4,6-trimethylphenyl)imino]-6,7-dihydro-2H-pyrimido[6,1-a]isoquinolin-3(4H)-yl}ethyl)urea]
Average FEV1 (AUC)0-12 h post-dose at Week 12: Change from Baseline, CFB Least Squares Mean (95% CI) ([3]; 3 mg BID by nebulizer, week 12, n = 498): 48.2 (30.0, 66.5) mL | Average FEV1 (AUC)0-12 h post-dose at Week 12: Placebo-corrected CFB LS Mean Diff. (95% CI) ([3]; 3 mg BID by nebulizer, week 12, versus placebo): 93.9 (64.5, 123.3) mL | Improvement in lung function ([3]; individuals with normal renal function to mild renal impairment and subjects with moderate renal impairment): statistically significant improvement in lung function
